Experimental data: PubChem BioAssay (NCI)
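Values below derive from 48-hour exposures of cells grown in 96-well plates, with endpoints linearly interpolated between the two concentrations bracketing the appropriate inhibition level. The concentration for full growth arrest is given as TGI.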

Key:
Assay in all cases: NCI tumour cell line growth inhibition, 48 h
A549 NSCLC = test system: A549 NSCLC
OVCAR-4 ovarian = test system: OVCAR-4 ovarian
OVCAR-8 ovarian = test system: OVCAR-8 ovarian
MCF7 breast = test system: MCF7 breast
NCI-H226 lung = test system: NCI-H226 lung
SK-MEL-5 melanoma = test system: SK-MEL-5 melanoma
MDA-MB-435 = test system: MDA-MB-435
COLO 205 colon = test system: COLO 205 colon
NCI/ADR-RES ovarian = test system: NCI/ADR-RES ovarian
TK-10 renal = test system: TK-10 renal
M14 melanoma = test system: M14 melanoma
HOP-62 NSCLC = test system: HOP-62 NSCLC
UACC-257 melanoma = test system: UACC-257 melanoma
SK-OV-3 ovarian = test system: SK-OV-3 ovarian
CCRF-CEM leukemia = test system: CCRF-CEM leukemia
MALME-3M melanoma = test system: MALME-3M melanoma
LOX IMVI melanoma = test system: LOX IMVI melanoma
KM12 colon = test system: KM12 colon
ACHN renal = test system: ACHN renal
786-0 renal = test system: 786-0 renal
OVCAR-3 ovarian = test system: OVCAR-3 ovarian
U251 CNS = test system: U251 CNS
NCI-H460 lung = test system: NCI-H460 lung
UACC-62 melanoma = test system: UACC-62 melanoma
MOLT-4 leukemia = test system: MOLT-4 leukemia
DU-145 prostate = test system: DU-145 prostate
K-562 leukemia = test system: K-562 leukemia
SR leukemia = test system: SR leukemia
HCT-116 colon = test system: HCT-116 colon
SF-295 CNS = test system: SF-295 CNS
SNB-75 CNS = test system: SNB-75 CNS
HCC-2998 colon = test system: HCC-2998 colon
SF-268 CNS = test system: SF-268 CNS
MDA-N = test system: MDA-N
HOP-92 NSCLC = test system: HOP-92 NSCLC
OVCAR-5 ovarian = test system: OVCAR-5 ovarian
IGROV1 ovarian = test system: IGROV1 ovarian
HL-60(TB) leukemia = test system: HL-60(TB) leukemia
SF-539 CNS = test system: SF-539 CNS
EKVX NSCLC = test system: EKVX NSCLC
SN12C renal = test system: SN12C renal
HCT-15 colon = test system: HCT-15 colon
HT29 colon = test system: HT29 colon
UO-31 renal = test system: UO-31 renal
PC-3 prostate = test system: PC-3 prostate
MDA-MB-231 breast = test system: MDA-MB-231 breast
T-47D breast = test system: T-47D breast
NCI-H23 lung = test system: NCI-H23 lung
SK-MEL-2 melanoma = test system: SK-MEL-2 melanoma
HS 578T breast = test system: HS 578T breast
SW-620 colon = test system: SW-620 colon
SK-MEL-28 melanoma = test system: SK-MEL-28 melanoma
RPMI-8226 leukemia = test system: RPMI-8226 leukemia
SNB-19 CNS = test system: SNB-19 CNS
RXF 393 renal = test system: RXF 393 renal
A498 renal = test system: A498 renal
CAKI-1 renal = test system: CAKI-1 renal
NCI-H522 lung = test system: NCI-H522 lung

CCN(CC)CCOCCn1c2c(c3ccccc31)CCCC2
TGI (A549 NSCLC): 72.2 µM | TGI (OVCAR-4 ovarian): > 100 µM | TGI (OVCAR-8 ovarian): > 100 µM | TGI (MCF7 breast): 35.2 µM | TGI (NCI-H226 lung): 55.2 µM | TGI (SK-MEL-5 melanoma): 26.3 µM | TGI (MDA-MB-435): 32.7 µM | TGI (COLO 205 colon): 39.1 µM | TGI (NCI/ADR-RES ovarian): 33.3 µM | TGI (TK-10 renal): 38.5 µM | TGI (M14 melanoma): 31.3 µM | TGI (HOP-62 NSCLC): 31.5 µM | TGI (UACC-257 melanoma): 48.7 µM | TGI (SK-OV-3 ovarian): 86.3 µM | TGI (CCRF-CEM leukemia): 50.9 µM | TGI (MALME-3M melanoma): 29.3 µM | TGI (LOX IMVI melanoma): 37.3 µM | TGI (KM12 colon): > 100 µM | TGI (ACHN renal): 41.9 µM | TGI (786-0 renal): 30 µM | TGI (OVCAR-3 ovarian): > 100 µM | TGI (U251 CNS): 49.3 µM | TGI (NCI-H460 lung): 39.1 µM | TGI (UACC-62 melanoma): 32.4 µM | TGI (MOLT-4 leukemia): 35.5 µM | TGI (DU-145 prostate): 91.1 µM | TGI (K-562 leukemia): 30.2 µM | TGI (SR leukemia): 35.5 µM | TGI (HCT-116 colon): 29.4 µM | TGI (SF-295 CNS): > 100 µM | TGI (SNB-75 CNS): > 100 µM | TGI (HCC-2998 colon): 31 µM | TGI (SF-268 CNS): > 100 µM | TGI (MDA-N): 31.1 µM | TGI (HOP-92 NSCLC): 68.9 µM | TGI (OVCAR-5 ovarian): 41.3 µM | TGI (IGROV1 ovarian): 60 µM | TGI (HL-60(TB) leukemia): 24.6 µM | TGI (SF-539 CNS): 32 µM | TGI (EKVX NSCLC): > 100 µM | TGI (SN12C renal): 35.5 µM | TGI (HCT-15 colon): 34.5 µM | TGI (HT29 colon): 90.2 µM | TGI (UO-31 renal): 36.8 µM | TGI (PC-3 prostate): 59.5 µM | TGI (MDA-MB-231 breast): 35.1 µM | TGI (T-47D breast): 52.9 µM | TGI (NCI-H23 lung): > 100 µM | TGI (SK-MEL-2 melanoma): 29.6 µM | TGI (HS 578T breast): 56.5 µM | TGI (SW-620 colon): 36.8 µM | TGI (SK-MEL-28 melanoma): 40 µM | TGI (RPMI-8226 leukemia): 51.1 µM

O=C(NC/C(Cl)=C/Cl)Nc1c2ccccc2nc2ccccc12
TGI (A549 NSCLC): > 100 µM | TGI (OVCAR-4 ovarian): > 100 µM | TGI (OVCAR-8 ovarian): > 100 µM | TGI (MCF7 breast): > 100 µM | TGI (NCI-H226 lung): > 100 µM | TGI (SK-MEL-5 melanoma): > 100 µM | TGI (SNB-19 CNS): > 100 µM | TGI (MDA-MB-435): > 100 µM | TGI (COLO 205 colon): > 100 µM | TGI (NCI/ADR-RES ovarian): > 100 µM | TGI (TK-10 renal): > 100 µM | TGI (M14 melanoma): > 100 µM | TGI (HOP-62 NSCLC): > 100 µM | TGI (RXF 393 renal): > 100 µM | TGI (UACC-257 melanoma): > 100 µM | TGI (SK-OV-3 ovarian): > 100 µM | TGI (MALME-3M melanoma): > 100 µM | TGI (LOX IMVI melanoma): > 100 µM | TGI (KM12 colon): > 100 µM | TGI (ACHN renal): > 100 µM | TGI (786-0 renal): > 100 µM | TGI (OVCAR-3 ovarian): > 100 µM | TGI (U251 CNS): > 100 µM | TGI (NCI-H460 lung): > 100 µM | TGI (UACC-62 melanoma): > 100 µM | TGI (A498 renal): > 100 µM | TGI (MOLT-4 leukemia): > 100 µM | TGI (DU-145 prostate): > 100 µM | TGI (CAKI-1 renal): > 100 µM | TGI (SR leukemia): > 100 µM | TGI (HCT-116 colon): > 100 µM | TGI (SF-295 CNS): > 100 µM | TGI (SNB-75 CNS): > 100 µM | TGI (HCC-2998 colon): > 100 µM | TGI (SF-268 CNS): > 100 µM | TGI (MDA-N): > 100 µM | TGI (HOP-92 NSCLC): > 100 µM | TGI (OVCAR-5 ovarian): > 100 µM | TGI (IGROV1 ovarian): > 100 µM | TGI (NCI-H522 lung): > 100 µM | TGI (SF-539 CNS): 93.2 µM | TGI (EKVX NSCLC): > 100 µM | TGI (SN12C renal): > 100 µM | TGI (HCT-15 colon): > 100 µM | TGI (HT29 colon): > 100 µM | TGI (UO-31 renal): > 100 µM | TGI (PC-3 prostate): > 100 µM | TGI (MDA-MB-231 breast): 80.1 µM | TGI (T-47D breast): > 100 µM | TGI (NCI-H23 lung): > 100 µM | TGI (SK-MEL-2 melanoma): > 100 µM | TGI (HS 578T breast): > 100 µM | TGI (SW-620 colon): > 100 µM | TGI (SK-MEL-28 melanoma): > 100 µM | TGI (RPMI-8226 leukemia): > 100 µM

CC(=O)c1c2c(cc3c1CC1(Cc4cc5c(cc4C1)CCCC5)C3)CCCC2
TGI (A549 NSCLC): > 100 µM | TGI (OVCAR-4 ovarian): > 100 µM | TGI (OVCAR-8 ovarian): > 100 µM | TGI (MCF7 breast): 56.9 µM | TGI (NCI-H226 lung): > 100 µM | TGI (SK-MEL-5 melanoma): 22.3 µM | TGI (MDA-MB-435): 53.1 µM | TGI (COLO 205 colon): > 100 µM | TGI (NCI/ADR-RES ovarian): > 100 µM | TGI (TK-10 renal): > 100 µM | TGI (M14 melanoma): > 100 µM | TGI (HOP-62 NSCLC): > 100 µM | TGI (RXF 393 renal): > 100 µM | TGI (UACC-257 melanoma): 55.7 µM | TGI (SK-OV-3 ovarian): > 100 µM | TGI (MALME-3M melanoma): > 100 µM | TGI (LOX IMVI melanoma): > 100 µM | TGI (KM12 colon): > 100 µM | TGI (ACHN renal): 38.8 µM | TGI (786-0 renal): > 100 µM | TGI (OVCAR-3 ovarian): > 100 µM | TGI (U251 CNS): > 100 µM | TGI (UACC-62 melanoma): > 100 µM | TGI (A498 renal): > 100 µM | TGI (MOLT-4 leukemia): 38.5 µM | TGI (K-562 leukemia): 29.4 µM | TGI (SR leukemia): 17.5 µM | TGI (HCT-116 colon): > 100 µM | TGI (SF-295 CNS): > 100 µM | TGI (SNB-75 CNS): 72.2 µM | TGI (HCC-2998 colon): > 100 µM | TGI (MDA-N): 56.5 µM | TGI (HOP-92 NSCLC): > 100 µM | TGI (OVCAR-5 ovarian): > 100 µM | TGI (IGROV1 ovarian): > 100 µM | TGI (HL-60(TB) leukemia): 31.4 µM | TGI (NCI-H522 lung): > 100 µM | TGI (SF-539 CNS): > 100 µM | TGI (EKVX NSCLC): > 100 µM | TGI (SN12C renal): > 100 µM | TGI (HCT-15 colon): > 100 µM | TGI (HT29 colon): > 100 µM | TGI (UO-31 renal): > 100 µM | TGI (PC-3 prostate): > 100 µM | TGI (MDA-MB-231 breast): > 100 µM | TGI (T-47D breast): > 100 µM | TGI (NCI-H23 lung): > 100 µM | TGI (SK-MEL-2 melanoma): 51.3 µM | TGI (HS 578T breast): > 100 µM | TGI (RPMI-8226 leukemia): 81.8 µM
